Where two headings read alike, the source gives them in different places.

By IC50 is commonly meant the midpoint of a concentration-inhibition curve. One may read the Ki as a dissociation constant, usually derived from enzyme kinetics or from competition with a known ligand. The kinact is the maximal first-order rate at which the target is inactivated.

In test [1] the test system is pSer473 of PKB/Akt in SKOV3 cells. The test can be described thus: In-Cell Western cellular PI3K signaling, pSer473 of PKB/Akt in SKOV3 cells. It counts as cell-based. The settings on record: Homo sapiens. The method, then: Protein phosphorylation was detected as follows: pSer473 of PKB/Akt with rabbit polyclonal antibody from Cell Signaling Technology (CST) (#4058) by In-Cell Western assays, where 1.2×10^4 SKOV3 cells/well in 96-well plates were plated (Cell Carrier, PerkinElmer) for 24 hours (37° C., 5% CO2), as described in Ref.^21.

Another test has as its target p110α (PI3Kα) (Homo sapiens, UniProt P42336). The test can be described thus: LanthaScreen determination of kinetic constants (kinact, Ki) for p110α.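 On all read-outs here: covalent inhibition constants for p110α come from LanthaScreen data, fitted globally by numerical integration in KinTek Global Kinetic Explorer software.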 It is filed as binding. The settings on record: for Ki: dissociation constant of the first reversible binding, mean of 3; for kinact: read-out: kinact PI3Kα. Background: Time-resolved FRET reads energy transfer from a long-lived donor to a nearby acceptor.

Test [2] can be described thus: Intrinsic reactivity of the inhibitors with βME measured with HPLC. It is filed as physicochemical. The following applies: 1 mM inhibitor + 600 mM βME, n = 3, mean. From the text:
E˜I→EI • ii) off-target reactions with ubiquitous sulfhydryls (S) and other nucleophils present in physiologic environments such as cells and body fluids are driven by the intrinsic reactivity of the warhead that is defined by Kchem driving the conversion of S and I to form the sulfhydryl-adduct (SI) [table]

The mark [3] stands for this setting: SK-OV-3, SKOV3 cells, mean of 2 or 3 independent measurements, read-out: IC50 pPKB (S473) SKOV3.
Where [4] appears, read: mean of 3 independent measurements, global fitting with KinTek.
Setting [5] is: SK-OV-3, read-out: IC50 pPKB (S473) SKOV3.

p110α (PI3Kα), sequence (P42336 whole entry): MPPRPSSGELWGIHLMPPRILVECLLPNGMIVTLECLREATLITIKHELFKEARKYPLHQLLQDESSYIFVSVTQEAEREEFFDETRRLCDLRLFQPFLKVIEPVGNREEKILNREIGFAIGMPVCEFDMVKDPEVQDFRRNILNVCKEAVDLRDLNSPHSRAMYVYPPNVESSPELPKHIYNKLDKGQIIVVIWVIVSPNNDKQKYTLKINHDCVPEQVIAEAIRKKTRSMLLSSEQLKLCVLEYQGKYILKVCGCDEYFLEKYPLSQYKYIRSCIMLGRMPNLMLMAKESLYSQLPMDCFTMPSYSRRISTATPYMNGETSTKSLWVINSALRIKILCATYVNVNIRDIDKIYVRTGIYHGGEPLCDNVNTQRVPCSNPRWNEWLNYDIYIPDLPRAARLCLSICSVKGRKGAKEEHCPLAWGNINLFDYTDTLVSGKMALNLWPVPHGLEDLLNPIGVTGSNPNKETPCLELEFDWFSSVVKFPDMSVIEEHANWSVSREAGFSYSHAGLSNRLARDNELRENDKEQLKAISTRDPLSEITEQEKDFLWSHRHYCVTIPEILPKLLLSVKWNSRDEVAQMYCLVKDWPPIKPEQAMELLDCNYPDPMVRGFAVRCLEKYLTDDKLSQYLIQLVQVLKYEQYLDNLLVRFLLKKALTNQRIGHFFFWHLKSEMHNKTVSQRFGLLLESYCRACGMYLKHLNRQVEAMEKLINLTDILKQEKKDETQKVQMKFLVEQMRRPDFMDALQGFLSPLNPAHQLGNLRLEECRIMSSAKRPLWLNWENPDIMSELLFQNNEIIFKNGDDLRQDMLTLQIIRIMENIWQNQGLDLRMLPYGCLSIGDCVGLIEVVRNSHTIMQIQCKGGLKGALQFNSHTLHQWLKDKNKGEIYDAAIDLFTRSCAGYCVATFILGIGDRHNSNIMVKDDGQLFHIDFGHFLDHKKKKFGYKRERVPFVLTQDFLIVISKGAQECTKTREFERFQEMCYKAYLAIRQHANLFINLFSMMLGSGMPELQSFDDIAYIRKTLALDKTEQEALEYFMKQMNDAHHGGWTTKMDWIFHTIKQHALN
p110α (PI3Kα), sequence (P27986 whole entry partner): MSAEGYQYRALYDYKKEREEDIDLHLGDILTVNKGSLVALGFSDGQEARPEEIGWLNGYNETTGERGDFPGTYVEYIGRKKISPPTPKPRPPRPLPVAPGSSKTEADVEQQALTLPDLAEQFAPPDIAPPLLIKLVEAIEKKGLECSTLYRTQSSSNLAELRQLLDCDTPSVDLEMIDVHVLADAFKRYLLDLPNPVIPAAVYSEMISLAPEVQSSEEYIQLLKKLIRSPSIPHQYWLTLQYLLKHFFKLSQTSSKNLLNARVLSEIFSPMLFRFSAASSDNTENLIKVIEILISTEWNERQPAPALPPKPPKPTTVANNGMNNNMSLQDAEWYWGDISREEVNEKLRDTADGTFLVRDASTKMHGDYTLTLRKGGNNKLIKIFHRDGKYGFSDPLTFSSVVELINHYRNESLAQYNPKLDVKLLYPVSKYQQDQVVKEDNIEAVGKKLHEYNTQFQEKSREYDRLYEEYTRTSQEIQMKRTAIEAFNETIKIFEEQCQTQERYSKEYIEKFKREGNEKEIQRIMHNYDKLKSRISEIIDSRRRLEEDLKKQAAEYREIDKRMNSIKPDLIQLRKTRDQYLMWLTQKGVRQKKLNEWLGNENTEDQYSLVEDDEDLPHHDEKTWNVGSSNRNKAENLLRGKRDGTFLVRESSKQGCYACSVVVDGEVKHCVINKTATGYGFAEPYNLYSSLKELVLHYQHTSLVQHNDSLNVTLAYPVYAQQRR
Description for p110α (PI3Kα): Apparent dissociation constants of compounds [Ki(app)] for p110α were determined by LanthaScreen Technology (Life Technologies), as described in Ref.^21.
Maximum potential rate of covalent bond formation (Kinact) and dissociation constant of the first reversible binding (Ki) of compounds for p110α were determined by LanthaScreen Technology (Life Technologies). The calculation of kinetic parameters was carried out through global fitting for numerical integration by using KinTek Global Kinetic Explorer modelling software^22-27.

For `C=CC(=O)N1CCC[C@H](C(=O)NCC(=O)N2CCN(c3nc(-c4cnc(N)nc4C(F)F)nc(N4CCOCC4)n3)CC2)C1` [Compound 15, (S)-1-acryloyl-N-(2-(4-(4-(2-amino-4-(difluoromethyl)pyrimidin-5-yl)-6-morpholino-1,3,5-triazin-2-yl)piperazin-1-yl)-2-oxoethyl)piperidine-3-carboxamide], the IC50 in test [1] (setting [3]) turned out to be 133 nM. In addition, the kinact/KI on p110α (PI3Kα) (PI3Kα, read-out: kinact/Ki) is 151000 M⁻¹ s⁻¹. The same compound came in with a Ki on p110α (PI3Kα) of 3.63 nM. For the same compound, at p110α (PI3Kα) (setting [4]), the kinact worked out at 0.000547 s⁻¹. Besides, in test [2], the kchem came to 0.00073 M⁻¹ s⁻¹.
With `C=CC(=O)N1CCC[C@@H](C(=O)NCC(=O)N2CCN(c3nc(-c4cnc(N)nc4C(F)F)nc(N4CCOCC4)n3)CC2)C1` [Compound 16, (R)-1-acryloyl-N-(2-(4-(4-(2-amino-4-(difluoromethyl)pyrimidin-5-yl)-6-morpholino-1,3,5-triazin-2-yl)piperazin-1-yl)-2-oxoethyl)piperidine-3-carboxamide], in test [1] (setting [3]), the IC50 stood at 27.5 nM. Further, the kinact/KI on p110α (PI3Kα) (PI3Kα, read-out: kinact/Ki) was 914000 M⁻¹ s⁻¹. For the same compound, on p110α (PI3Kα), the Ki was 3.89 nM. On p110α (PI3Kα) (setting [4]), the kinact worked out at 0.00356 s⁻¹. In addition, in test [2], the kchem stood at 0.00076 M⁻¹ s⁻¹.
`C=CC(=O)N1CCC[C@H](C(=O)N(C)CC(=O)N2CCN(c3nc(-c4cnc(N)nc4C(F)F)nc(N4CCOCC4)n3)CC2)C1` [Compound 17, (S)-1-acryloyl-N-(2-(4-(4-(2-amino-4-(difluoromethyl)pyrimidin-5-yl)-6-morpholino-1,3,5-triazin-2-yl)piperazin-1-yl)-2-oxoethyl)-N-methylpiperidine-3-carboxamide]: the IC50 in test [1] (setting [3]) came out at 85.7 nM. Also, the kinact/KI at p110α (PI3Kα) (PI3Kα, read-out: kinact/Ki) amounted to 32700 M⁻¹ s⁻¹. This compound also registered a Ki on p110α (PI3Kα) of 7.66 nM. On p110α (PI3Kα) (setting [4]), the kinact is 0.000251 s⁻¹. Also, in test [2], the kchem was found to be 0.00068 M⁻¹ s⁻¹.
For `C=CC(=O)N1CCC[C@@H](C(=O)N(C)CC(=O)N2CCN(c3nc(-c4cnc(N)nc4C(F)F)nc(N4CCOCC4)n3)CC2)C1` [Compound 18, (R)-1-acryloyl-N-(2-(4-(4-(2-amino-4-(difluoromethyl)pyrimidin-5-yl)-6-morpholino-1,3,5-triazin-2-yl)piperazin-1-yl)-2-oxoethyl)-N-methylpiperidine-3-carboxamide], the IC50 in test [1] (setting [5]) worked out at 15.3 nM. For the same compound, at p110α (PI3Kα), the kinact/KI stood at 711000 M⁻¹ s⁻¹, the Ki was 6.08 nM and the kinact amounted to 0.00433 s⁻¹. In addition, the kchem in test [2] stood at 0.000704 M⁻¹ s⁻¹.
Take `C=CC(=O)N1CCC[C@@H](C(=O)NCCN2CCN(c3nc(-c4cnc(N)nc4C(F)F)nc(N4CCOCC4)n3)CC2)C1` [Compound 19, (R)-1-acryloyl-N-(2-(4-(4-(2-amino-4-(difluoromethyl)pyrimidin-5-yl)-6-morpholino-1,3,5-triazin-2-yl)piperazin-1-yl)ethyl)piperidine-3-carboxamide]: the IC50 in test [1] (setting [3]) was found to be 28.8 nM. Further, the kinact/KI at p110α (PI3Kα) (PI3Kα, read-out: kinact/Ki) was 16300 M⁻¹ s⁻¹. This compound showed a Ki at p110α (PI3Kα) of 12 nM. Also, on p110α (PI3Kα) (setting [4]), the kinact is 0.000196 s⁻¹.
In the case of `C=CC(=O)N1CCCC[C@H]1C(=O)NCC(=O)N1CCN(c2nc(-c3cnc(N)nc3C(F)F)nc(N3CCOCC3)n2)CC1` [Compound 20, (S)-1-acryloyl-N-(2-(4-(4-(2-amino-4-(difluoromethyl)pyrimidin-5-yl)-6-morpholino-1,3,5-triazin-2-yl)piperazin-1-yl)-2-oxoethyl)piperidine-2-carboxamide], the IC50 in test [1] (setting [3]) amounted to 59.3 nM. For the same compound, the kinact/KI on p110α (PI3Kα) (PI3Kα, read-out: kinact/Ki) was found to be 212000 M⁻¹ s⁻¹. At p110α (PI3Kα), this compound registered a Ki of 3.06 nM. Also, the maximal inactivation rate constant (kinact) on p110α (PI3Kα) (setting [4]) turned out to be 0.00065 s⁻¹. For the same compound, the kchem in test [2] turned out to be 0.00444 M⁻¹ s⁻¹.
Consider `C=CC(=O)N1CCCC[C@@H]1C(=O)NCC(=O)N1CCN(c2nc(-c3cnc(N)nc3C(F)F)nc(N3CCOCC3)n2)CC1` [Compound 21, (R)-1-acryloyl-N-(2-(4-(4-(2-amino-4-(difluoromethyl)pyrimidin-5-yl)-6-morpholino-1,3,5-triazin-2-yl)piperazin-1-yl)-2-oxoethyl)piperidine-2-carboxamide], for which the IC50 in test [1] (setting [3]) amounted to 89.8 nM. Also, the kinact/KI at p110α (PI3Kα) (PI3Kα, read-out: kinact/Ki) amounted to 227000 M⁻¹ s⁻¹. On p110α (PI3Kα), this compound returned a Ki of 3.85 nM. Further, the kinact at p110α (PI3Kα) (setting [4]) turned out to be 0.000875 s⁻¹. Also, the kchem in test [2] is 0.00469 M⁻¹ s⁻¹.
Turning to `C=CC(=O)N1CCCC[C@H]1C(=O)N(C)CC(=O)N1CCN(c2nc(-c3cnc(N)nc3C(F)F)nc(N3CCOCC3)n2)CC1` [Compound 22, (S)-1-acryloyl-N-(2-(4-(4-(2-amino-4-(difluoromethyl)pyrimidin-5-yl)-6-morpholino-1,3,5-triazin-2-yl)piperazin-1-yl)-2-oxoethyl)-N-methylpiperidine-2-carboxamide], the IC50 in test [1] (setting [3]) was determined as 29.3 nM. In addition, at p110α (PI3Kα) (PI3Kα, read-out: kinact/Ki), the kinact/KI was determined as 54000 M⁻¹ s⁻¹. In addition, at p110α (PI3Kα), the Ki turned out to be 5.74 nM. The kinact at p110α (PI3Kα) (setting [4]) amounted to 0.000309 s⁻¹. Moreover, the kchem in test [2] is 0.00094 M⁻¹ s⁻¹.
On to `C=CC(=O)N1CCCC[C@@H]1C(=O)N(C)CC(=O)N1CCN(c2nc(-c3cnc(N)nc3C(F)F)nc(N3CCOCC3)n2)CC1` [Compound 23, (R)-1-acryloyl-N-(2-(4-(4-(2-amino-4-(difluoromethyl)pyrimidin-5-yl)-6-morpholino-1,3,5-triazin-2-yl)piperazin-1-yl)-2-oxoethyl)-N-methylpiperidine-2-carboxamide], for which the IC50 in test [1] (setting [3]) was determined as 60.5 nM. Also, at p110α (PI3Kα) (PI3Kα, read-out: kinact/Ki), the kinact/KI came to 27200 M⁻¹ s⁻¹. Moreover, the Ki on p110α (PI3Kα) is 8.47 nM. Moreover, on p110α (PI3Kα) (setting [4]), the kinact was found to be 0.000231 s⁻¹. For the same compound, the kchem in test [2] is 0.001 M⁻¹ s⁻¹.
As for `C=CC(=O)N1CC[C@H](C(=O)NCC(=O)N2CCN(c3nc(-c4cnc(N)nc4C(F)F)nc(N4CCOCC4)n3)CC2)C1` [Compound 24, (S)-1-acryloyl-N-(2-(4-(4-(2-amino-4-(difluoromethyl)pyrimidin-5-yl)-6-morpholino-1,3,5-triazin-2-yl)piperazin-1-yl)-2-oxoethyl)pyrrolidine-3-carboxamide], the IC50 in test [1] (setting [3]) worked out at 94 nM. In addition, the kinact/KI on p110α (PI3Kα) (PI3Kα, read-out: kinact/Ki) worked out at 311000 M⁻¹ s⁻¹. Further, affinity at p110α (PI3Kα) was put at a Ki of 8.34 nM. Moreover, on p110α (PI3Kα) (setting [4]), the kinact was 0.0026 s⁻¹. Also, the kchem in test [2] turned out to be 0.00059 M⁻¹ s⁻¹.
For the compound `C=CC(=O)N1CC[C@@H](C(=O)NCC(=O)N2CCN(c3nc(-c4cnc(N)nc4C(F)F)nc(N4CCOCC4)n3)CC2)C1` [Compound 25, (R)-1-acryloyl-N-(2-(4-(4-(2-amino-4-(difluoromethyl)pyrimidin-5-yl)-6-morpholino-1,3,5-triazin-2-yl)piperazin-1-yl)-2-oxoethyl)pyrrolidine-3-carboxamide], in test [1] (setting [5]), the IC50 was found to be 42 nM. Also, at p110α (PI3Kα), the kinact/KI worked out at 961000 M⁻¹ s⁻¹, the Ki is 5.36 nM and the maximal inactivation rate constant (kinact) was found to be 0.00514 s⁻¹. For the same compound, the kchem in test [2] worked out at 0.00062 M⁻¹ s⁻¹.
Consider `C=CC(=O)N1CCC[C@H]1C(=O)N(C)CC(=O)N1CCN(c2nc(-c3cnc(N)nc3C(F)F)nc(N3CCOCC3)n2)CC1` [Compound 30, (S)-1-acryloyl-N-(2-(4-(4-(2-amino-4-(difluoromethyl)pyrimidin-5-yl)-6-morpholino-1,3,5-triazin-2-yl)piperazin-1-yl)-2-oxoethyl)-N-methylpyrrolidine-2-carboxamide], for which the kchem in test [2] came out at 0.00058 M⁻¹ s⁻¹.
Take `C=CC(=O)N1CCC[C@@H]1C(=O)N(C)CC(=O)N1CCN(c2nc(-c3cnc(N)nc3C(F)F)nc(N3CCOCC3)n2)CC1` [Compound 31, (R)-1-acryloyl-N-(2-(4-(4-(2-amino-4-(difluoromethyl)pyrimidin-5-yl)-6-morpholino-1,3,5-triazin-2-yl)piperazin-1-yl)-2-oxoethyl)-N-methylpyrrolidine-2-carboxamide]: the IC50 in test [1] (setting [3]) is 447 nM. Further, in test [2], the kchem turned out to be 0.00052 M⁻¹ s⁻¹.
With `C=CC(=O)N1CC(C(=O)NCC(=O)N2CCN(c3nc(-c4cnc(N)nc4C(F)F)nc(N4CCOCC4)n3)CC2)C1` [Compound 32, 1-acryloyl-N-(2-(4-(4-(2-amino-4-(difluoromethyl)pyrimidin-5-yl)-6-morpholino-1,3,5-triazin-2-yl)piperazin-1-yl)-2-oxoethyl)azetidine-3-carboxamide], in test [1] (setting [3]), the IC50 amounted to 175 nM. The kchem in test [2] came to 0.00517 M⁻¹ s⁻¹.
On to `C=CC(=O)N1CC(C(=O)N(C)CCC(=O)N2CCN(c3nc(-c4cnc(N)nc4C(F)F)nc(N4CCOCC4)n3)CC2)C1` [Compound 37, 1-acryloyl-N-(3-(4-(4-(2-amino-4-(difluoromethyl)pyrimidin-5-yl)-6-morpholino-1,3,5-triazin-2-yl)piperazin-1-yl)-3-oxopropyl)-N-methylazetidine-3-carboxamide], for which, in test [1] (setting [3]), the IC50 came out at 196 nM. Besides, the kchem in test [2] worked out at 0.00636 M⁻¹ s⁻¹.
With `C=CC(=O)N1CCC(C(=O)NCC(=O)N2CCN(c3nc(-c4cnc(N)nc4C(F)F)nc(N4CCOCC4)n3)CC2)CC1` [Compound 44, 1-acryloyl-N-(2-(4-(4-(2-amino-4-(difluoromethyl)pyrimidin-5-yl)-6-morpholino-1,3,5-triazin-2-yl)piperazin-1-yl)-2-oxoethyl)piperidine-4-carboxamide], in test [1] (setting [3]), the IC50 came to 82 nM. Further, the kchem in test [2] amounted to 0.00037 M⁻¹ s⁻¹.
`C=CC(=O)N1CCC(C(=O)N(C)CC(=O)N2CCN(c3nc(-c4cnc(N)nc4C(F)F)nc(N4CCOCC4)n3)CC2)CC1` [Compound 45, 1-acryloyl-N-(2-(4-(4-(2-amino-4-(difluoromethyl)pyrimidin-5-yl)-6-morpholino-1,3,5-triazin-2-yl)piperazin-1-yl)-2-oxoethyl)-N-methylpiperidine-4-carboxamide]: the IC50 in test [1] (setting [3]) was 86 nM. Also, in test [2], the kchem is 0.000354 M⁻¹ s⁻¹.

The values above are taken from patent US20240208957A1, “TRIAZINE DERIVATIVE AS REVERSIBLE AND IRREVERSIBLE COVALENT INHIBITORS OF PI3K” (UNIVERSITÄT BASEL, priority 2021, published 2024).
